Reference: PubChem BioAssay (NCI)
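96-well plates; 48 h exposure; 5 concentrations. Endpoints by linear interpolation between flanking doses. Not reached: highest tested concentration assigned. TGI is the concentration that stops growth completely.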

Experiments:
Test in all cases: DTP human tumour cell line panel, 48 h
UO-31 renal = tested on: UO-31 renal
K-562 leukemia = tested on: K-562 leukemia
SNB-19 CNS = tested on: SNB-19 CNS
HOP-62 NSCLC = tested on: HOP-62 NSCLC
SN12C renal = tested on: SN12C renal
NCI-H23 lung = tested on: NCI-H23 lung
OVCAR-5 ovarian = tested on: OVCAR-5 ovarian
KM12 colon = tested on: KM12 colon
NCI-H226 lung = tested on: NCI-H226 lung
BT-549 breast = tested on: BT-549 breast
RXF 393 renal = tested on: RXF 393 renal
MDA-MB-231 breast = tested on: MDA-MB-231 breast
LOX IMVI melanoma = tested on: LOX IMVI melanoma
MOLT-4 leukemia = tested on: MOLT-4 leukemia
HT29 colon = tested on: HT29 colon
DU-145 prostate = tested on: DU-145 prostate
MDA-MB-435 = tested on: MDA-MB-435
M14 melanoma = tested on: M14 melanoma
ACHN renal = tested on: ACHN renal
HCT-15 colon = tested on: HCT-15 colon
PC-3 prostate = tested on: PC-3 prostate
SNB-75 CNS = tested on: SNB-75 CNS
SK-MEL-28 melanoma = tested on: SK-MEL-28 melanoma
IGROV1 ovarian = tested on: IGROV1 ovarian
NCI/ADR-RES ovarian = tested on: NCI/ADR-RES ovarian
SK-MEL-5 melanoma = tested on: SK-MEL-5 melanoma
HS 578T breast = tested on: HS 578T breast
SK-OV-3 ovarian = tested on: SK-OV-3 ovarian
NCI-H460 lung = tested on: NCI-H460 lung
SR leukemia = tested on: SR leukemia
SF-295 CNS = tested on: SF-295 CNS
OVCAR-4 ovarian = tested on: OVCAR-4 ovarian
HCT-116 colon = tested on: HCT-116 colon
SF-268 CNS = tested on: SF-268 CNS
EKVX NSCLC = tested on: EKVX NSCLC
MCF7 breast = tested on: MCF7 breast
CAKI-1 renal = tested on: CAKI-1 renal
MDA-N = tested on: MDA-N
OVCAR-8 ovarian = tested on: OVCAR-8 ovarian
T-47D breast = tested on: T-47D breast
UACC-62 melanoma = tested on: UACC-62 melanoma
COLO 205 colon = tested on: COLO 205 colon
UACC-257 melanoma = tested on: UACC-257 melanoma
OVCAR-3 ovarian = tested on: OVCAR-3 ovarian
A549 NSCLC = tested on: A549 NSCLC
786-0 renal = tested on: 786-0 renal
NCI-H522 lung = tested on: NCI-H522 lung
TK-10 renal = tested on: TK-10 renal
MALME-3M melanoma = tested on: MALME-3M melanoma
RPMI-8226 leukemia = tested on: RPMI-8226 leukemia
U251 CNS = tested on: U251 CNS
HL-60(TB) leukemia = tested on: HL-60(TB) leukemia

SMILES: S=C1Nc2cnc3ccccc3c2SC1c1ccccc1 (configuration not stated)
- TGI (UO-31 renal): > 100 µM
- TGI (K-562 leukemia): > 100 µM
- TGI (SNB-19 CNS): > 100 µM
- TGI (HOP-62 NSCLC): > 100 µM
- TGI (SN12C renal): > 100 µM
- TGI (NCI-H23 lung): > 100 µM
- TGI (OVCAR-5 ovarian): > 100 µM
- TGI (KM12 colon): > 100 µM
- TGI (NCI-H226 lung): > 100 µM
- TGI (BT-549 breast): > 100 µM
- TGI (RXF 393 renal): 99.4 µM
- TGI (MDA-MB-231 breast): > 100 µM
- TGI (LOX IMVI melanoma): > 100 µM
- TGI (MOLT-4 leukemia): > 100 µM
- TGI (HT29 colon): > 100 µM
- TGI (DU-145 prostate): > 100 µM
- TGI (MDA-MB-435): > 100 µM
- TGI (M14 melanoma): > 100 µM
- TGI (ACHN renal): > 100 µM
- TGI (HCT-15 colon): > 100 µM
- TGI (PC-3 prostate): > 100 µM
- TGI (SNB-75 CNS): > 100 µM
- TGI (SK-MEL-28 melanoma): > 100 µM
- TGI (IGROV1 ovarian): > 100 µM
- TGI (NCI/ADR-RES ovarian): > 100 µM
- TGI (SK-MEL-5 melanoma): > 100 µM
- TGI (HS 578T breast): > 100 µM
- TGI (SK-OV-3 ovarian): > 100 µM
- TGI (NCI-H460 lung): > 100 µM
- TGI (SR leukemia): > 100 µM
- TGI (SF-295 CNS): > 100 µM
- TGI (OVCAR-4 ovarian): > 100 µM
- TGI (HCT-116 colon): > 100 µM
- TGI (SF-268 CNS): > 100 µM
- TGI (EKVX NSCLC): > 100 µM
- TGI (MCF7 breast): > 100 µM
- TGI (CAKI-1 renal): > 100 µM
- TGI (MDA-N): > 100 µM
- TGI (OVCAR-8 ovarian): > 100 µM
- TGI (T-47D breast): > 100 µM
- TGI (UACC-62 melanoma): > 100 µM
- TGI (COLO 205 colon): > 100 µM
- TGI (UACC-257 melanoma): > 100 µM
- TGI (OVCAR-3 ovarian): > 100 µM
- TGI (A549 NSCLC): > 100 µM
- TGI (786-0 renal): > 100 µM
- TGI (NCI-H522 lung): > 100 µM
- TGI (TK-10 renal): > 100 µM
- TGI (MALME-3M melanoma): > 100 µM
- TGI (RPMI-8226 leukemia): > 100 µM
- TGI (U251 CNS): > 100 µM
- TGI (HL-60(TB) leukemia): > 100 µM
